The results in this text go back to ChEMBL document CHEMBL3992545, “Discovery and dimeric approach of novel Natriuretic Peptide Receptor A (NPR-A) agonists” (Bioorg Med Chem, 2017).

Each structure is given as a SMILES string. Activity calls are given as the source filed them. The rule behind the calls is not given here. Bounds are passed on as bounds.

Test [1] concerns Rattus norvegicus. In words: In vivo agonist activity at NPR-A in Crl:CD(SD) rat assessed as increase in cGMP accumulation in lung at 30 ug/kg/min, iv. In kind it is functional, organism-based.
Test [2] deals with T1, Atrial natriuretic peptide receptor 1 (Rattus norvegicus, UniProt P18910).
T1 sequence (P18910 whole entry): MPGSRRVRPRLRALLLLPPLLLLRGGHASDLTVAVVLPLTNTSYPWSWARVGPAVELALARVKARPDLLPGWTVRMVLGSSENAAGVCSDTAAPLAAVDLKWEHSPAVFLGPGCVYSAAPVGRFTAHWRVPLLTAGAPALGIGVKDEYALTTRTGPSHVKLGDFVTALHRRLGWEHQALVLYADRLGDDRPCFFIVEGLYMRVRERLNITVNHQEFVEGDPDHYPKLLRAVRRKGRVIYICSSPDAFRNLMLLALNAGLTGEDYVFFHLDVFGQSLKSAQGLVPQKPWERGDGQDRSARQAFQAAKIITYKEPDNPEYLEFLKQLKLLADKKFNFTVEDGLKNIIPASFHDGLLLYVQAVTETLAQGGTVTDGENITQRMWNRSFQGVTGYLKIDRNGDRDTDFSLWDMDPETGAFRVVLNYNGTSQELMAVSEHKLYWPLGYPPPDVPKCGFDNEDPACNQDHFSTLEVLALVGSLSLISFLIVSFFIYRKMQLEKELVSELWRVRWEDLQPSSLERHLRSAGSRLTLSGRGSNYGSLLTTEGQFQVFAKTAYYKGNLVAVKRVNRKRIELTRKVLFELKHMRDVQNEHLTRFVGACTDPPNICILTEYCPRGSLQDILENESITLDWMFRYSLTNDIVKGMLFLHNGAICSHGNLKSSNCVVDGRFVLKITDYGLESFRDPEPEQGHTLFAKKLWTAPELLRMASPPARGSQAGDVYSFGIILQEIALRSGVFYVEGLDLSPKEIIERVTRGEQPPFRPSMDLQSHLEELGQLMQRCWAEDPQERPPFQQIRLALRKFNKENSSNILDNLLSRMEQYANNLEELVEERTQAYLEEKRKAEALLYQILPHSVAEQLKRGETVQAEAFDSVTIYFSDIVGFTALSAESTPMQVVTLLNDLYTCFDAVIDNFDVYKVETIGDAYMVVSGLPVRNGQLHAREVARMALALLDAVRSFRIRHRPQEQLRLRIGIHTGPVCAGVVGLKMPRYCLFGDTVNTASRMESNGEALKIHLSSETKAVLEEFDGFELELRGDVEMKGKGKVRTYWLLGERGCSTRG
In words: Agonist activity at rat NPR-A expressed in CHO cells assessed as increase in cGMP accumulation after 15 mins by fluorescent assay. In kind it is cell-based.

In test [3] the test system is Rattus norvegicus. In words: Diuretic activity in iv dosed Crl:CD(SD) rat assessed as increase in urine volume administered as bolus dose measured up to 60 mins. In kind it is functional, organism-based.
Test [4] relates to Rattus norvegicus. In words: In vivo agonist activity at NPR-A in iv dosed Crl:CD(SD) rat assessed as increase in cGMP accumulation in kidney administered as infusion over 30 mins by radioimmunoassay. In kind it is functional, organism-based.
Test [5] addresses T2, Atrial natriuretic peptide receptor 1 (Homo sapiens, UniProt P16066).
T2 sequence (P16066 whole entry): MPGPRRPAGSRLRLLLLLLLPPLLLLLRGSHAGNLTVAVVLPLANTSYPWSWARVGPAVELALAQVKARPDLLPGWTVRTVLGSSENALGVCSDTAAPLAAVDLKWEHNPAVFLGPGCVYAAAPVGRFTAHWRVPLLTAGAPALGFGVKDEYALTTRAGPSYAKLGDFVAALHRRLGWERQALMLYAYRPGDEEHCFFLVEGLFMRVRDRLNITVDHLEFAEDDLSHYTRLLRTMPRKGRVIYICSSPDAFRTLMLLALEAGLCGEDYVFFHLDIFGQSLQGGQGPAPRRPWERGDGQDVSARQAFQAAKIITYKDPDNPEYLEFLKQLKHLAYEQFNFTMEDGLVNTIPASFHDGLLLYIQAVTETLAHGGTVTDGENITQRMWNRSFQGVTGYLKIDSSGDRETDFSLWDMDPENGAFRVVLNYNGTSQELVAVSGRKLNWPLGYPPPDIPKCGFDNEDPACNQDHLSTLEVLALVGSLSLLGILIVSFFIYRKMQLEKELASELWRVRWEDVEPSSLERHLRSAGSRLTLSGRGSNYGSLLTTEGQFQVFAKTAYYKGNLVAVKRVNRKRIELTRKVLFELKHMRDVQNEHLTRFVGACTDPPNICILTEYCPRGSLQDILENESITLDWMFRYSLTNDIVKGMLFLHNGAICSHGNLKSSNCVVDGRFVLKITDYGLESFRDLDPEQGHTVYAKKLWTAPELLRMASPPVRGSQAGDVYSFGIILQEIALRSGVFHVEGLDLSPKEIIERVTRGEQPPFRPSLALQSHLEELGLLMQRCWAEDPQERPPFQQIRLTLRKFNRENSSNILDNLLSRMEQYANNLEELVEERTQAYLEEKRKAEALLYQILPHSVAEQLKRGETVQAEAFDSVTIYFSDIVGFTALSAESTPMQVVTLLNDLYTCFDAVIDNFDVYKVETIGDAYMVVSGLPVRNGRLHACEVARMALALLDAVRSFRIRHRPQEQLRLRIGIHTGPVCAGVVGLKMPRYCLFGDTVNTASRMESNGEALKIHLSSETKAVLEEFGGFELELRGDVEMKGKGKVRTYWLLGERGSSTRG
In words: Agonist activity at human NPR-A expressed in CHO cells assessed as increase in cGMP accumulation after 30 mins by radioimmunoassay. In kind it is cell-based.

Test [6] relates to Rattus norvegicus. In words: In vivo agonist activity at NPR-A in Crl:CD(SD) rat assessed as increase in cGMP accumulation in kidney at 1 ug/kg/min, iv administered as infusion over 30 mins by radioimmunoassay. It counts as functional, organism-based.
Test [7] relates to Rattus norvegicus. The test can be described thus: Diuretic activity in Crl:CD(SD) rat assessed as increase in urine volume at 10 ug/kg, iv administered as bolus dose measured up to 60 mins. In kind it is functional, organism-based.

As a reminder, the EC50 is the concentration at which the effect is half-maximal. As for `CCCCC1C(=O)N=C(N)N1c1nc(NC(=N)N)nc(Nc2ccc(Nc3nc(NC(=N)N)nc(N4C(N)=NC(=O)C4CCCC)n3)cc2)n1` (configuration not stated), the outcome with Rattus norvegicus [1] was Active. The EC50 in test [2] is 0.023 µM; in test [5], 0.002 µM. Further, the Activity entry with Rattus norvegicus [3] and in the test on Rattus norvegicus [4] was “Dose-dependent effect” in each case.

Consider `C/N=C(\N(C)C)N(C)c1nc(Nc2ccccc2)nc(N2C(N)=NC(=O)C2CC(C)C)n1` (configuration not stated), for which the EC50 in test [5] is 64 µM.

On to `CC[C@H](C)[C@@H]1NC(=O)[C@H](CCCNC(=N)N)NC(=O)[C@H](CC(=O)O)NC(=O)[C@H](CCSC)NC(=O)[C@H](CCCNC(=N)N)NC(=O)CNC(=O)CNC(=O)[C@H](Cc2ccccc2)NC(=O)[C@@H](NC(=O)[C@H](CO)NC(=O)[C@H](CO)NC(=O)[C@H](CCCNC(=N)N)NC(=O)[C@H](CCCNC(=N)N)NC(=O)[C@H](CC(C)C)NC(=O)[C@@H](N)CO)CSSC[C@@H](C(=O)N[C@@H](CC(N)=O)C(=O)N[C@@H](CO)C(=O)N[C@@H](Cc2ccccc2)C(=O)N[C@@H](CCCNC(=N)N)C(=O)N[C@@H](Cc2ccc(O)cc2)C(=O)O)NC(=O)CNC(=O)[C@H](CC(C)C)NC(=O)CNC(=O)[C@H](CO)NC(=O)[C@H](CCC(N)=O)NC(=O)[C@H](C)NC(=O)CNC1=O`, for which the result with Rattus norvegicus [6] and in the test on Rattus norvegicus [7] was Active.

With `CC1C(=O)N=C(N)N1c1nc(NC(=N)N)nc(Nc2ccc(Nc3nc(NC(=N)N)nc(N4C(N)=NC(=O)C4C)n3)cc2)n1` (configuration not stated), in test [5], the EC50 was above 10 µM.

Take `CC(C)CC1C(=O)N=C(N)N1c1nc(NC(=N)N)nc(Nc2ccc(Nc3nc(NC(=N)N)nc(N4C(N)=NC(=O)C4C)n3)cc2)n1` (configuration not stated): the EC50 in test [5] came to 0.019 µM.

As for `CC(C)CC1C(=O)N=C(N)N1c1nc(NC(=N)N)nc(NC2CCC(Nc3nc(NC(=N)N)nc(N4C(N)=NC(=O)C4CC(C)C)n3)CC2)n1` (configuration not stated), the outcome in the test on Rattus norvegicus [1] was Active. The concentration giving a half-maximal response (EC50) is 0.076 µM in test [2] and 0.0081 µM in test [5]. Besides, the Activity entry with Rattus norvegicus [3] and in the test with Rattus norvegicus [4] was “Dose-dependent effect” in each case.

As to `CC(C)CC1C(=O)N=C(N)N1c1nc(NC(=N)N)nc(Nc2ccc(Nc3nc(NC(=N)N)nc(N4C(N)=NC(=O)C4CC(C)C)n3)cc2)n1` (configuration not stated), the EC50 in test [5] was found to be 0.0058 µM.

Consider `CC(C)CC1C(=O)N=C(N)N1c1nc(NC(=N)N)nc(Nc2ccccc2)n1` (configuration not stated), for which the EC50 in test [5] was 4 µM.
